EP1064944A1, “Protein kinase N inhibitor comprising Fasudil” (priority 1999, dated 2001)

What was measured:
[1] = target: human-recombinant protein kinase N (Homo sapiens, UniProt Q16512); assay: Measurement of inhibition activity of protein kinase N (PKN); format: biochemical
Procedure: The PKN reaction was carried out in 50 µl reaction buffer (20mM Tris HCI pH 7.5, 8mM MgCl2) containing (i) 40µM PKCα peptide ([…]) as a substrate of PKN, (ii) 1 µM GTPγS form GST-RhoA (prepared by the method of Method in ENZYMOLOGY Vol. 256 Small GTPases and Their Regulators Part B Rho Family P.3-10), (iii) 50µM, 20µM, 10µM and 5µM (as the final concentration of the reaction mixture) of ATP and 0.5µl of [γ-^32P] ATP (1.11 TBg/mmol, 74MBg/ml; supplied by NEN™ Life Science Product, Inc.), and (iv) a purified human-recombinant protein kinase N (prepared by using a Baculovirus expression system), in the presence of or in the absence of 1 µM of hexahydro-1-(5-isoquinolinesulfonyl)-1H-1,4-diazepine hydrochloride (Fasudil Hydrochloride). 30µl of the reaction mixture was spotted onto Whatman paper P81 (supplied by Whatman International Ltd.) after the incubation for 10 minutes at 30°C. After the spotting, the spotted Whatman paper was washed with 75mM phosphoric acid 5 times. Then incorporation of ^32P into the PKCα peptide on the washed paper was assessed by scintillation counting. Based on the assessment by scintillation counting, Km value was measured by Lineweaver-Burk plot (method), then K, value was calculated.

[2] = target: ROCK (Homo sapiens, UniProt Q13464); assay: ROCK inhibition (from Table 1 of Nature vol. 389, p. 991); format: biochemical; settings: based on the Ki values of Table 1 of Nature vol. 389, p. 991
From the text: According to Table 1 of Nature vol. […] 389, p. 991/30 October 1997 based on the Ki values.

[3] = system: Rat MM-1 Ascites Hepatoma cells bearing V14 Rho A; assay: Peritoneal invasion of Rat MM-1 ascites hepatoma cells bearing V14 Rho A (carcinomatous peritonitis model); format: in vivo, male Donryu rats; settings: after 11 days, 5 rats
Procedure: MMI ascites hepatoma cells (2x10^7) stably expressing Val 14-RhoA were injected into the peritoneal cavities of male Donryu rats (body weight 100g) (to obtain a model of rat having MM-1 ascites Hepatoma cells bearing V14 Rho A). Fasudil was intravenously delivered at the indicated dose (0, 0.1 mg/Kg, 1 mg/Kg, and 10 mg/Kg) 3 times per day. After 11 days, the animals were sacrificed and (i) tumor nodules and tumor cell dissemination on peritoneum were assessed (This test was conducted by the method which is similar to one described in Nature Medicine Volume 5, Number 2, February 1999, p.223-225 and was conducted with 5 rats at each dose.). In addition, hyperemia of the surface in the peritoneum was also observed.

[4] = 0.1 mg/Kg intravenously 3 times per day
[5] = 1 mg/Kg intravenously 3 times per day
[6] = 10 mg/Kg intravenously 3 times per day

Chain of human-recombinant protein kinase N (Q16512 whole entry): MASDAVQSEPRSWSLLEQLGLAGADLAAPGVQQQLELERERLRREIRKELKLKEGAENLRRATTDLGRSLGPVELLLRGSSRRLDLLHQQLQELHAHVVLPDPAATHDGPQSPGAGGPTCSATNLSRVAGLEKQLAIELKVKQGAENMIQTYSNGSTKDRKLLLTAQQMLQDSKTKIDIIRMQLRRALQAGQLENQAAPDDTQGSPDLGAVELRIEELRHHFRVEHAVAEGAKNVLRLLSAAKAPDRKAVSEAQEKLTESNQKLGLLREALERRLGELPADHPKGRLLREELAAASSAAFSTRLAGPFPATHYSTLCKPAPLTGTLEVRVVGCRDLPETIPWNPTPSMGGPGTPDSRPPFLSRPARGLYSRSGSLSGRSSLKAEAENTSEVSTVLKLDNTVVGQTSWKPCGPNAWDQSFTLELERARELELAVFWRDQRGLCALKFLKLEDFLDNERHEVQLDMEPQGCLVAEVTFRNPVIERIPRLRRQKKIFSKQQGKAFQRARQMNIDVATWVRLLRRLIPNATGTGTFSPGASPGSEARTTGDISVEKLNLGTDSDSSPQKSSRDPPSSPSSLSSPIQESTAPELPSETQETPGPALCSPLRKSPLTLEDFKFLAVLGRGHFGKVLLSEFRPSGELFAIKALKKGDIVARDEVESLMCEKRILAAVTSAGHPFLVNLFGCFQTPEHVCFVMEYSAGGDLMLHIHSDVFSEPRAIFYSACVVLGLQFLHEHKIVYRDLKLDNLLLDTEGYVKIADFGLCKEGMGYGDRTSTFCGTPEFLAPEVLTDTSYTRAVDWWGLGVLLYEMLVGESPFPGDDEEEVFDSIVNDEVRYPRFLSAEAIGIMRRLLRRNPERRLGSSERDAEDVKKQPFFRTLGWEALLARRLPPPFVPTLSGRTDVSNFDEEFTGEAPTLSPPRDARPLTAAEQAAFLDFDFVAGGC
Chain of human-recombinant protein kinase N (P61586 whole entry partner): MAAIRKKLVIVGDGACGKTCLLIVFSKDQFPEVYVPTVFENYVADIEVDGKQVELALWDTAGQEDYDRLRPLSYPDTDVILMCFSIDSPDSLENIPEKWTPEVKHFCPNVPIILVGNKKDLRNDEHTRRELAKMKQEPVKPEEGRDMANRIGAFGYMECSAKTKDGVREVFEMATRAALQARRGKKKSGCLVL
Chain of ROCK (Q13464 whole entry): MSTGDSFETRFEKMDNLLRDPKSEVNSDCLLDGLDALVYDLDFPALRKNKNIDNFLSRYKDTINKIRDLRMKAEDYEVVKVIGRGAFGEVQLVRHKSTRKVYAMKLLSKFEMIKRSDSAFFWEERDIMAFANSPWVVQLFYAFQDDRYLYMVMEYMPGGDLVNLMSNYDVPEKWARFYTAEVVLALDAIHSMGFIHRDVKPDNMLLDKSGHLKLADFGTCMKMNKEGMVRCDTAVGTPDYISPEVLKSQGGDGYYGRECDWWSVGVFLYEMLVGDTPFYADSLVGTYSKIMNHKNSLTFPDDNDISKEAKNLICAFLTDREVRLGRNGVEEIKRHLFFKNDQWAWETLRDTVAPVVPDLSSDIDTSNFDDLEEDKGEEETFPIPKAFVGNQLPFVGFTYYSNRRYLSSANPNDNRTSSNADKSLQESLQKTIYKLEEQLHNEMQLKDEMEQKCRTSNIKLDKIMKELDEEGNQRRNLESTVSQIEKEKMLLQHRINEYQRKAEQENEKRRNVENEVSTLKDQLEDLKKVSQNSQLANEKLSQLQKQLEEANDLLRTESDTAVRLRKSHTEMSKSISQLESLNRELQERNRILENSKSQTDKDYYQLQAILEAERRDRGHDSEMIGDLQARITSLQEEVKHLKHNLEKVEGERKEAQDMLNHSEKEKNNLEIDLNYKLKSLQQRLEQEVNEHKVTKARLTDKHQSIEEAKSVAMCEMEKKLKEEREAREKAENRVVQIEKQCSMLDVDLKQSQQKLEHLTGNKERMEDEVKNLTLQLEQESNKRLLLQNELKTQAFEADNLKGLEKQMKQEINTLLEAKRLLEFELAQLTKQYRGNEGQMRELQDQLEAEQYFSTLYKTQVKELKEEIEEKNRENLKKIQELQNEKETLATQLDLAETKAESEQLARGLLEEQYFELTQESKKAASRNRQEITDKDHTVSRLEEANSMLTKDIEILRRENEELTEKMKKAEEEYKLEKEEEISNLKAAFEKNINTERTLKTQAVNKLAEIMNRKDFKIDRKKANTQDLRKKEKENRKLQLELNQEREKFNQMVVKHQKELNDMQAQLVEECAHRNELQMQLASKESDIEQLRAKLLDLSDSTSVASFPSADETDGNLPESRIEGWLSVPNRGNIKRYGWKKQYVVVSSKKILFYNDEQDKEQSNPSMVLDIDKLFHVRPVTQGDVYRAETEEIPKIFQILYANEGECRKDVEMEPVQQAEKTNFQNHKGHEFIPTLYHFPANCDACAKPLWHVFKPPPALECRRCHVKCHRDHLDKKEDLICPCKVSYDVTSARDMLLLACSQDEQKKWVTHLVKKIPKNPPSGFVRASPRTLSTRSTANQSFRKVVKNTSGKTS

Cl.O=S(=O)(c1cccc2cnccc12)N1CCCNCC1 [Fasudil Hydrochloride, hexahydro-1-(5-isoquinolinesulfonyl)-1H-1,4-diazepine hydrochloride]
Ki ([1]; 1 µM Fasudil Hydrochloride, ATP 50, 20, 10 and 5 µM, Lineweaver-Burk plot, 10 minutes at 30°C): 922 nM
PKN inhibitory activity relative to the inhibitory activity of protein kinase C ([1]; based on the Ki values, protein kinase C Ki from Table 1 of Nature vol. 389, p. 991): ten times higher
ROCK inhibitory activity relative to the inhibitory activity of protein kinase C [2]: 28 times
Hyperemia of the surface in the peritoneum [3, 4]: + (25-50% of surface in the peritoneum shows hyperemia)
Total number of tumor nodules on peritoneum [3, 4]: 22
Hyperemia of the surface in the peritoneum [3, 5]: ± (less than 25% of surface in the peritoneum shows hyperemia)
Total number of tumor nodules on peritoneum [3, 5]: 11
Hyperemia of the surface in the peritoneum [3, 6]: ± (less than 25% of surface in the peritoneum shows hyperemia)
Total number of tumor nodules on peritoneum [3, 6]: 0
